Experimental data published in publication PMC8026324, “In Vitro Antiplasmodial, Heme Polymerization, and Cytotoxicity of Hydroxyxanthone Derivatives” (Journal of Tropical Medicine, 2021).

Legend:
heme polymerization = tested on: heme polymerization; parameters: method as in PMID 9199506; conditions: cited from earlier work
[1] = tested on: P. falciparum strain 3D-7; parameters: method as in doi:10.22159/ajpcr.2017.v10i12.19858; conditions: cited from earlier work; for IC50: read-out: antiplasmodial IC50 on P. falciparum strain 3D-7
WIDR = tested on: WIDR; parameters: method as in earlier work; conditions: cited from earlier work
MCF-7 = tested on: MCF-7; parameters: method as in earlier work; conditions: cited from earlier work
Hela = tested on: Hela; parameters: method as in earlier work; conditions: cited from earlier work
[2] = tested on: Plasmodium falciparum 3D-7 (chloroquine-sensitive strain); assay: In vitro antiplasmodial activity assay, microscopic method, strain 3D-7; type: cell-based; conditions: for IC50: 72 hours incubation, microscopic method, read-out: IC50 on P. falciparum 3D-7; for antiplasmodial activity category on P. falciparum 3D-7: category by IC50
Procedure: (§1) The test of antiplasmodial activity began with the culture of P. falciparum 3D-7 and FCR-3 using the modified Trager and Jensen method. The plasmodium was cultured in human O red blood cells diluted to 3% haematocrit in RPMI 1640 medium complemented with 10% human O serum. The medium was made by adding 10.43 g of powder RPMI 1640, 6 g HEPES, 2 g NaHCO3, 25 mg gentamycin, and sterile distilled water up to 1 L. The medium pH was adjusted so that it reached ±7.2. It was sterilized using a 0.22 μm filter and stored at 4°C. The complete plasmodium culture medium was made by adding human serum with a concentration of 10% in the medium. The plasmodium culture was incubated in candle jar in an incubator with a temperature of 37°C and was observed every 24 hours.
(§2) The plasmodium was synchronized to obtain the ring stage by adding 5% of D-sorbitol. The plasmodium was transferred from culture flask to a conical tube, and then it was centrifuged with a speed of 1000 rpm for 10 minutes. After the supernatant was disposed, the sterile 5% sorbitol was added and incubated for 10 minutes at a temperature of 37°C. The plasmodium suspension was centrifuged again; the supernatant was disposed and the plasmodium was washed by adding culture medium. Then, the plasmodium suspension was centrifuged again, and the supernatant was discarded, resulting in a plasmodium in ring stage only. The parasitemia was calculated from a thin blood preparation. The test used 1% parasitemia at 2% haematocrit in RPMI medium which complemented with 10% human O serum.
(§3) Each testing compound was dissolved in RPMI medium. The testing compound in various concentrations with volume of 100 μL was incorporated into the 96-well microplate, and then 100 μL of Plasmodium suspension was added. Each series of concentrations was replicated three times. The microplate was incubated at a temperature of 37°C for 72 hours. At the end of the incubation, a thin blood smear was made using 10% Giemsa stain and observed under a light microscope at 1000x magnification. The percentage of parasitemia (counting a minimum of 1,000 erythrocytes) was calculated from the preparation of thin blood and then used to calculate the percentage of plasmodium growth inhibition. […] Antiplasmodial activity is expressed as IC50, which is the concentration of a compound that is required for 50% inhibition of plasmodium growth. The IC50 value was calculated by probit analysis using SPSS software (IBM Corp., Chicago). The lower the IC50 value obtained, the greater the antiplasmodial activity.

Vero cells = assay: In vitro cytotoxicity test, MTT assay on Vero cell line; type: cell-based; conditions: for IC50: MTT assay; for Selectivity index 3D-7: ratio IC50 on Vero cell/IC50 on P. falciparum 3D-7; for Selectivity index FCR-3: ratio IC50 on Vero cell/IC50 on P. falciparum FCR-3
Procedure: The in vitro cytotoxicity test was conducted using the 3-(4,5-dimethylthiazol-2-yl)2,5-diphenyltetrazolium bromide (MTT) assay method on Vero cell line culture using the Anderson et al.'s modified method.
The cell was removed from the cryo medium. Then, the cell was thawed at 37°C. The liquid cell was subsequently transferred to the tube and a culture medium was added to a volume of 10 mL. Then, the suspension was centrifuged for 15 minutes so that it would form cell pellets. The supernatant was removed and 1 mL of culture medium was added to the cell pellets. Finally, the suspension was transferred to the Petri dish and incubated in the incubator with 5% of CO2 at 37°C.
The medium of Vero cell culture was removed, and then the cell was washed using a PBS solution with a volume of PBS ± 1/2 of the initial medium volume. This step was done twice and 1 mL of trypsin 0.25% was added. Subsequently, the cell was incubated in the CO2 incubator at 37°C for 3 minutes. Then, the cell was resuspended using 2 mL of culture medium and PBS solution was added up to 10 mL. The suspension was centrifuged for 15 minutes so that it formed pellets. Pellets were added with 1 mL of culture medium and resuspended. Take 10 μL of the cell suspension and density of cells was calculated.
Then, the cell was added with culture medium to 10 mL. A total of 100 μL of such suspensions was transferred into each well of the 96-well microplate, but three of the wells were emptied as medium controls. Subsequently, the microplate was incubated in a 5% CO2 incubator at 37°C.
Each hydroxyxanthone derivative compound was dissolved in DMSO, and a variety of concentrations were prepared in the medium. Each concentration of the testing compound was added into the 96-well microplate triplicately. Cell control and medium control were not given a testing compound solution. The medium control remained blank, while the cell control contained culture medium only. […] Then, the cell was incubated in a 5% CO2 incubator at 37°C for 24 hours.
After the cell was incubated for 24 hours, the medium was discarded and washed with PBS. Then, each well was added with 100 μL of 5 mg/mL of MTT solution. The 96-well microplate was incubated again in the incubator of CO2 at 37°C for 4 hours. Then, 100 μL of 10% of SDS in 0.01 MHCl was added. The cells were placed in a dark room at room temperature for 24 hours.
The absorbance was measured using the enzyme-linked immunosorbent assay (ELISA) reader at 595 nm wavelength. The cytotoxicity test on the Vero cells was done by calculating the percentage of Vero cell inhibition of the absorption value of the test compound, cell control, and medium control. The cytotoxic effect was expressed as IC50. The IC50 value was obtained from the probit analysis by using SPSS software (IBM Corp., Chicago). The degree of selectivity was expressed as a selectivity index. The selectivity index was obtained from the ratio between the IC50 cytotoxic effect on Vero cells and IC50 antiplasmodial activity on Plasmodium. A compound is said to be safe if the value of the selectivity index is >10 [20].

[3] = tested on: Plasmodium falciparum FCR-3 (chloroquine-resistant strain); assay: In vitro antiplasmodial activity assay, microscopic method, strain FCR-3; type: cell-based; conditions: for IC50: 72 hours incubation, microscopic method, read-out: IC50 on P. falciparum FCR-3; for antiplasmodial activity category on P. falciparum FCR-3: category by IC50
Procedure: as §1, §2, §3

[4] = Chlorocebus sabaeus, Vero, 24 h, 24 hours incubation

pentametoxyxanthone
heme polymerization inhibitory activity (in words) (heme polymerization): inactive

O=c1c2cc(O)ccc2oc2ccc(O)cc12 [2,7-dihydroxyxanthone]
IC50 [1]: 1.34 µM

O=c1c2ccccc2oc2ccc(O)cc12 [2-hydroxyxanthone]
antiplasmodial IC50 [1]: 4.385 µg/mL | IC50 [1]: 20.7 µM

Cc1c(O)ccc2c(=O)c3c(O)cccc3oc12 [HX5, 1,6-dihydroxy-5-methylxanthone]
cytotoxicity on WIDR (in words) (WIDR): weak | cytotoxicity on MCF-7 (in words) (MCF-7): weak | cytotoxicity on Hela (in words) (Hela): weak | inhibition at 20.64 µM ([2]; Plasmodium falciparum, 20.64 μM, read-out: Growth inhibition of P. falciparum Strain 3D-7): 37.9 ± 0.441% | inhibition at 41.28 µM ([2]; Plasmodium falciparum, 41.28 μM, read-out: Growth inhibition of P. falciparum Strain 3D-7): 45 ± 0.563% | inhibition at 82.56 µM ([2]; Plasmodium falciparum, 82.56 μM, read-out: Growth inhibition of P. falciparum Strain 3D-7): 54.2 ± 1.57% | inhibition at 165.13 µM ([2]; Plasmodium falciparum, 165.13 μM, read-out: Growth inhibition of P. falciparum Strain 3D-7): 75.4 ± 1.29% | inhibition at 330.25 µM ([2]; Plasmodium falciparum, 330.25 μM, read-out: Growth inhibition of P. falciparum Strain 3D-7): 93.3 ± 0.956% | IC50 ([2]; Plasmodium falciparum): 46.69 ± 0.29 µM | antiplasmodial activity category on P. falciparum 3D-7 [2]: moderate (moderate (IC50 20–100 μM)) | IC50 (Vero cells; 24 hours incubation): 418 µM | IC50 (Vero cells; [4]): 459 µM | inhibition at 64.4 µM (Vero cells; Chlorocebus sabaeus, Vero, 24 h, 64.40 μM, read-out: Vero cell growth inhibition after 24 hours incubation): -5.19% | inhibition at 128.8 µM (Vero cells; Chlorocebus sabaeus, Vero, 24 h, 128.80 μM, read-out: Vero cell growth inhibition after 24 hours incubation): 27.9% | inhibition at 258.01 µM (Vero cells; Chlorocebus sabaeus, Vero, 24 h, 258.01 μM, read-out: Vero cell growth inhibition after 24 hours incubation): 37.8% | inhibition at 516.02 µM (Vero cells; Chlorocebus sabaeus, Vero, 24 h, 516.02 μM, read-out: Vero cell growth inhibition after 24 hours incubation): 48.3% | inhibition at 1032.03 µM (Vero cells; Chlorocebus sabaeus, Vero, 24 h, 1032.03 μM, read-out: Vero cell growth inhibition after 24 hours incubation): 68.1% | inhibition at 2064.07 µM (Vero cells; Chlorocebus sabaeus, Vero, 24 h, 2064.07 μM, read-out: Vero cell growth inhibition after 24 hours incubation): 88.8% | IC50 (Vero cells; Chlorocebus sabaeus, Vero): 111 µg/mL | Selectivity index 3D-7 (Vero cells): 8.94 | Selectivity index FCR-3 (Vero cells): 6.99 | inhibition at 20.64 µM ([3]; Plasmodium falciparum, FCR3, 20.64 μM, read-out: Growth inhibition of P. falciparum Strain FCR-3): 33.63 ± 0.327% | inhibition at 41.28 µM ([3]; Plasmodium falciparum, FCR3, 41.28 μM, read-out: Growth inhibition of P. falciparum Strain FCR-3): 41.14 ± 0.396% | inhibition at 82.56 µM ([3]; Plasmodium falciparum, FCR3, 82.56 μM, read-out: Growth inhibition of P. falciparum Strain FCR-3): 46.5 ± 0.816% | inhibition at 165.13 µM ([3]; Plasmodium falciparum, FCR3, 165.13 μM, read-out: Growth inhibition of P. falciparum Strain FCR-3): 73.5 ± 1.6% | inhibition at 330.25 µM ([3]; Plasmodium falciparum, FCR3, 330.25 μM, read-out: Growth inhibition of P. falciparum Strain FCR-3): 84.7 ± 0.902% | IC50 ([3]; Plasmodium falciparum, FCR3): 59.7 ± 0.78 µM | antiplasmodial activity category on P. falciparum FCR-3 [3]: moderate (moderate (IC50 20–100 μM))

O=c1c2ccc(O)c(O)c2oc2cccc(O)c12 [HX3, 1,5,6-trihydroxyxanthone]
cytotoxicity on WIDR (in words) (WIDR): weak | cytotoxicity on MCF-7 (in words) (MCF-7): weak | cytotoxicity on Hela (in words) (Hela): weak | inhibition at 25.59 µM ([2]; Plasmodium falciparum, 25.59 μM, read-out: Growth inhibition of P. falciparum Strain 3D-7): 47.3 ± 0.611% | inhibition at 51.19 µM ([2]; Plasmodium falciparum, 51.19 μM, read-out: Growth inhibition of P. falciparum Strain 3D-7): 63.4 ± 0.421% | inhibition at 102.38 µM ([2]; Plasmodium falciparum, 102.38 μM, read-out: Growth inhibition of P. falciparum Strain 3D-7): 68.89 ± 0.151% | inhibition at 204.75 µM ([2]; Plasmodium falciparum, 204.75 μM, read-out: Growth inhibition of P. falciparum Strain 3D-7): 80.92 ± 0.679% | inhibition at 409.5 µM ([2]; Plasmodium falciparum, 409.5 μM, read-out: Growth inhibition of P. falciparum Strain 3D-7): 87.4 ± 1.15% | IC50 ([2]; Plasmodium falciparum): 27.64 ± 0.19 µM | antiplasmodial activity category on P. falciparum 3D-7 [2]: moderate (moderate (IC50 20–100 μM)) | IC50 (Vero cells; 24 hours incubation): 224 µM | IC50 (Vero cells; [4]): 230 µM | inhibition at 63.88 µM (Vero cells; Chlorocebus sabaeus, Vero, 24 h, 63.88 μM, read-out: Vero cell growth inhibition after 24 hours incubation): 20.7% | inhibition at 127.76 µM (Vero cells; Chlorocebus sabaeus, Vero, 24 h, 127.76 μM, read-out: Vero cell growth inhibition after 24 hours incubation): 39.6% | inhibition at 255.94 µM (Vero cells; Chlorocebus sabaeus, Vero, 24 h, 255.94 μM, read-out: Vero cell growth inhibition after 24 hours incubation): 55.7% | inhibition at 511.88 µM (Vero cells; Chlorocebus sabaeus, Vero, 24 h, 511.88 μM, read-out: Vero cell growth inhibition after 24 hours incubation): 68% | inhibition at 1023.75 µM (Vero cells; Chlorocebus sabaeus, Vero, 24 h, 1023.75 μM, read-out: Vero cell growth inhibition after 24 hours incubation): 79.9% | inhibition at 2047.5 µM (Vero cells; Chlorocebus sabaeus, Vero, 24 h, 2047.50 μM, read-out: Vero cell growth inhibition after 24 hours incubation): 88.9% | IC50 (Vero cells; Chlorocebus sabaeus, Vero): 56.2 µg/mL | Selectivity index 3D-7 (Vero cells): 8.12 | Selectivity index FCR-3 (Vero cells): 3.50 | inhibition at 25.59 µM ([3]; Plasmodium falciparum, FCR3, 25.59 μM, read-out: Growth inhibition of P. falciparum Strain FCR-3): 38.3 ± 1.19% | inhibition at 51.19 µM ([3]; Plasmodium falciparum, FCR3, 51.19 μM, read-out: Growth inhibition of P. falciparum Strain FCR-3): 43.13 ± 0.126% | inhibition at 102.38 µM ([3]; Plasmodium falciparum, FCR3, 102.38 μM, read-out: Growth inhibition of P. falciparum Strain FCR-3): 51.92 ± 0.466% | inhibition at 204.75 µM ([3]; Plasmodium falciparum, FCR3, 204.75 μM, read-out: Growth inhibition of P. falciparum Strain FCR-3): 71.9 ± 7.84% | inhibition at 409.5 µM ([3]; Plasmodium falciparum, FCR3, 409.5 μM, read-out: Growth inhibition of P. falciparum Strain FCR-3): 83 ± 1.4% | IC50 ([3]; Plasmodium falciparum, FCR3): 64.1 ± 5.08 µM | antiplasmodial activity category on P. falciparum FCR-3 [3]: moderate (moderate (IC50 20–100 μM))

pentaacetylxanthone
heme polymerization inhibitory activity (in words) (heme polymerization): inactive
